Values after ≈ are worked out from the molar mass of the structure shown. Where two headings read alike, the source gives them in different places.
Experiments:
rats [1] = test: Diuretic activity in rats; format: in vivo; conditions: 10 mg/kg oral
Description: (§1) Sprague-Dawley rats, Swiss mice, California rabbits and mongrel guinea pigs and cats were used. 1-azaxanthone was administered as a suspension in 0.5 % w/v of carboxymethyl-cellulose in distilled water for oral and i.p. administration. When administered i.v. or to the nutrient liquid of the isolated tissues, a solution of the compound in isopropylidenglycerol (15 mg/ml) was used.
1-azaxanthone was administered orally to rats (groups of 10) in a volume of 5 ml/rat immediately before allocating the animals to metabolism cages. The total volume of urine was measured 6 and 24 hours later. 10 mg/kg of 1-azaxanthone increased the total volume with respect to the control group by 94% in the first 6 hours and 44% in the 24 hours period.

[2] = test system: turpentine-induced pleurisy; test: Turpentine-induced pleurisy; conditions: in vivo
rat inflamed paw = test: Hyperalgesia in rat inflamed paw (Randall and Selitto); format: in vivo; conditions: po, per os, read-out: AID2 (dose that increases twice the analgesic threshold of the control animals)
Description: as §1
Hyperalgesia in rat inflamed paw (according to L. O. Randall and J. J. Selitto, Arch. Int. Pharmacodyn. 1957, 111, 409).

Evans blue permeability = Evans blue permeability assay; conditions: in vivo
rabbits [3] = test: Lipopolysaccharide hyperthermia in rabbits with established fever; format: in vivo; conditions: 200 mg/kg i.p.
Description: as §1
Hyperthermia induced in rabbits by i.v. injection of lipopolysaccharide of Escherichia coli (according to C. A. Winter and G. W. Nuss, Toxic. Appl. Pharmacol. 1963, 5, 247). […] The compound was also effective when administered to rabbits with established fever; for example, when 200 mg/kg of 1-azaxanthone were administered i.p. to a group of 5 rabbits from a total of 10 with mean hyperpyrexia of +1.15° C. 2 hours after the lipopolysaccharide injection, the hyperpyrexia of the treated group was +0.7° C. at 2 hours and +0.1° C. at 3 hours, while the hyperpyrexia of the untreated animals was 1.5° C. at 2 hours and 1.15° C. at 3 hours (all periods after administration of the test compound).

cats = test: Physiologic peristaltic movements in cats; format: in vivo; conditions: 4 mg/kg endovenously
Description: as §1

rabbits [4] = test: Hyperthermia induced in rabbits by lipopolysaccharide of Escherichia coli, preventive; format: in vivo; conditions: 0.1 μg/kg lipopolysaccharide
Description: Sprague-Dawley rats, Swiss mice, California rabbits and mongrel guinea pigs and cats were used. 1-azaxanthone was administered as a suspension in 0.5 % w/v of carboxymethyl-cellulose in distilled water for oral and i.p. administration.

Guinea pig ileum = Guinea pig ileum in vitro spasmolytic assay; conditions: Cavia porcellus, read-out: ED50 (dose which inhibits the response of the ileum to the agonist by 50%)
Description: as §1
Guinea pig ileum (according to R. Magnus, Pflugers Arch. Ges. Physiol. 1904, 102, 123). In this "in vitro" assay 1-azaxanthone had the following ED50 with different agonists (dose which inhibits the response of the ileum to the agonists by 50%): […]

mice = test: Phenyl-p-benzoquinone induced writhing in mice; format: in vivo; conditions: Mus musculus; oral; 95% confidence limits 6.1-11.8
Description: as §1
Phenyl-p-benzoquinone induced writhing in mice (according to E. A. Siegmund et al., J. Pharmacol. Exptl. Therap. 1957, 119, 453). […] I

granuloma tissue = test: Cotton-pellet granuloma; format: in vivo; conditions: 200 mg/kg/day per os, 5 consecutive days
Description: as §1
Cotton-pellet granuloma (according to R. Meier et al., Experientia (Basel), 1950, 6, 469).

rats [5] = test: 6 months toxicity evaluation in rats; format: in vivo; conditions: 25, 50 and 100 mg/kg/day p.o.
[6] = Water solubility (general statement); format: physicochemical
rats [7] = test: Yeast-induced hyperthermia in rats; format: in vivo
Description: as §1
Yeast-induced hyperthermia in rats (according to U. M. Teotino et al., J. Med. Chem. 1963, 6, 248). The test compound was administered by oral route 1 hour before the s.c. injection of the pyrogenic agent.

Acute toxicity in mice = conditions: mouse, in vivo, ip, female mice
Description: The acute toxicity of 1-azaxanthone was evaluated in rats and mice. LD50 values ranged between 400-600 mg/kg (i.p. route) and between 600-2000 mg/kg (oral route) depending on species and sex.

rats [8] = test: Chronic administration to rats (92 days); format: in vivo
abscess = test: Carrageenan-induced abscess; format: in vivo; conditions: 50×2 mg/kg per os
Description: as §1
Carrageenan-induced abscess (according to K. F. Benitz and L. M. Hall, Arch. Int. Pharmacodyn. 1963, 144, 185).

## O=c1c2ccccc2oc2ncccc12 [1-azaxanthone]
Rats [1]
  sodium excretion: increased
Rats [1]; 24 hours period
  increase of total urine volume with respect to control: 44%
Rats [1]; first 6 hours
  increase of total urine volume with respect to control: 94%
[2]
  activity in turpentine-induced pleurisy: showed activity
Rat inflamed paw
  ED (2-fold analgesic threshold): 18.4 mg/kg
Evans blue permeability
  activity in Evans blue permeability assay: showed activity
Rabbits [3]; 2 hours after administration (untreated 1.5° C.)
  hyperpyrexia of the treated group: +0.7 °C
Rabbits [3]; 3 hours after administration (untreated 1.15° C.)
  hyperpyrexia of the treated group: +0.1 °C
cats
  inhibition of physiologic peristaltic movements: inhibited physiologic peristaltic movements
Rabbits [4]; 100 mg/kg i.p., control increase 1.85° C.
  reduction of the increase in rectal temperature: 0.7 °C
Rabbits [4]; 200 mg/kg i.p.
  protection against increase in rectal temperature: completely protected the animals
Guinea pig ileum; agonist: Acetylcholine
  IC50: 14.3 µg/mL (≈ 72.3 µM)
Guinea pig ileum; agonist: BaCl2
  IC50: 19.7 µg/mL (≈ 100 µM)
Guinea pig ileum; agonist: Histamine
  IC50: 22.9 µg/mL (≈ 116 µM)
Guinea pig ileum; agonist: Nicotine
  IC50: 27.8 µg/mL (≈ 141 µM)
mice
  ED50: 8.9 mg/kg
Granuloma tissue
  inhibition of weight of dried granuloma tissue: 17.4%
  inhibition of weight of wet granuloma tissue: 13.5%
Rats [5]
  toxicity results compared with the 92 days study: almost the same as in the 92 days study
[6]
  water solubility: low water solubility
Rats [7]; 0.375 mg/kg, 2nd and 3rd hours
  antipyretic effect: statistically significant antipyretic effect
Rats [7]; 6.2 mg/kg oral, 4 hours after yeast injection (control increase 1.8° C.)
  prevention of hyperthermia: completely prevented the hyperthermia
Rats [7]; 6.2 mg/kg oral, 6 hours after yeast injection (control total increase 1.4° C.)
  decrease of hyperthermia with respect to control increase: 0.8 °C
Acute toxicity in mice
  LD50: 600 mg/kg
Rats [8]; 25 mg/kg/day oral
  effect on body weight increase and hematological/serum parameters: without statistically significant effect
Rats [8]; 100 mg/kg/day oral
  alteration of parameters compared to control group: some of these parameters were altered
Rats [8]; oral
  survival: all animals survived
  weights of the main organs: within normal limits
abscess
  inhibition of dry weight of the abscess: 48.4%
  inhibition of wet weight of the abscess: 34.6%
